In brackets after ≈: the same amount, converted by molar mass. Several values for one entry are separate records, joined by “and”; a condition that tells them apart may be missing. Identical values can stand only once. Entries after “also recorded” stand apart in the source; their conditions may differ. Values belong to the compound of their own block, whether it stands above or below them.
Columns and labels:
[1] = disclosed in WO2017066775A1, cited from earlier work
[2] = In vitro dissolution of drug product (tablet) in pH 6.8 PBS; assay type: physicochemical; conditions: for Cumulative dissolution: drug product of example 16, 30 mg, 37° C., paddle 75 rpm
[3] = Intrinsic dissolution rate in pH 6.8 PBS; assay type: physicochemical; conditions: for IDR / Cumulative dissolution: 37° C.; for Cumulative dissolution: 100 rpm; for Slope: regression line of data within 8-15 minutes
Method: (§1) Solubility measurement for solubility, dissolution, and intrinsic dissolution rate in PBS in the present disclosure:
The whole pellet was transferred to a dissolution apparatus to test the intrinsic dissolution rate. The slope (in μg/min) of the regression line was calculated according to the data within 8-15 minutes. Intrinsic dissolution rate (IDR) was further calculated according to the slope (in μg/min/cm^2).

[4] = FaSSIF (pH 6.5, 37° C.); disclosed in WO2017066775A1; cited from earlier work
[5] = Compressibility (tablet hardness, tensile strength); assay type: physicochemical
Method: An ENERPAC manual tablet press was used for compression. 80 mg of Form CSI of the present disclosure and prior art Form C were weighed and added into the dies of a round tooling (ensuring the isotropy of tables), compressed at 10 KN manually, and then stored at room temperature for 24 h until complete elastic recovery. Hardness (H) was tested with an intelligent tablet hardness tester. Diameter (D) and thickness (L) were tested with a caliper. […] Under a certain force, the greater the tensile strength, the better the compressibility.

[6] = Crystalline form before and after formulation process (XRPD); assay type: physicochemical
Text: Form CSI of the present disclosure was made into tablet according to the formulation in Table 15 and process in Table 16. Crystalline forms before and after formulation were checked by XRPD, and the XRPD pattern overlay is substantially as depicted in FIG. 17.
Crystalline forms before and after formulation were checked by XRPD, and the comparison of XRPD patterns are substantially as depicted in FIG. 18.

[7] = Storage stability of drug substance (XRPD before and after storage); assay type: physicochemical; conditions: for Solid Form after storage: sealed
Method: Solid samples of Form CSI in the present disclosure were sealed and stored under different conditions of 4° C., 25° C./60% RH, 40° C./75% RH, and 60° C./75% RH. Crystalline form was checked by XRPD before and after storage.

[8] = Particle size distribution; assay type: physicochemical; conditions: wet mode, Isopar G, after 30 seconds of ultrasound
Method: The particle size distribution data in the present disclosure were acquired by a Mastersizer 3000 laser particle size analyzer of Malvern. The test is carried out in wet mode by Hydro MV dispersing device, and the dispersion medium is Isopar G. The method parameters of the laser particle size analyzer are as follows:
The mixture was mixed thoroughly and transferred into the Hydro MV dispersing device. The experiment started when the obscuration is in an appropriate range. The particle size distribution was tested after 30 seconds of ultrasound. The particle size distribution (PSD) patterns are substantially as depicted in FIG. 15 (Form CSI) and FIG. 16 (Form C).

[9] = Mechanical stability (tableting, grinding; XRPD); assay type: physicochemical
Method: 20 mg of Form CSI was weighed into the die of 16 mm round tooling (IDR punch), and tableted by ENERPAC manual tablet press with 3 kN, 7 kN, and 14 kN pressure.
A small amount of Form CSI was grounded manually for 5 minutes in a mortar.

[10] = Kinetic solubility in pH7.4 PBS, FaSSIF and FeSSIF; assay type: physicochemical; conditions: for solubility at 24 h / solubility at 34 h / solubility at 48 h: thermodynamic from solid
Method: Solubility measurement for freebase content in upadacitinib freebase acetic acid solvate of the present disclosure. Solubility measurement for upadacitinib freebase acetic acid solvate of the present disclosure in FaSSIF and FeSSIF:
as §1
The solubility of Form C was disclosed in WO2017066775A1. In order to have a comparison with Form C, solubility of Form CSI was measured. Saturated solutions of Form CSI of the present disclosure were prepared with pH7.4 PBS, pH6.5 FaSSIF and pH5.0 FeSSIF at 25° C. or 37° C. After equilibration for 24 h, 34 h and 48 h, the saturated solutions were obtained by filtration. The concentrations of compound I in the saturated solutions were measured by high performance liquid chromatography (HPLC) and the results are listed in Table 8.

[11] = grounded manually for 5 minutes in a mortar
[12] = PBS pH 7.4, aqueous buffer, pH 7.4 PBS, 25° C.

Compound: CC[C@@H]1CN(C(=O)NCC(F)(F)F)C[C@@H]1c1cnc2cnc3[nH]ccc3n12 [Form A]
Crystallinity and stability [1]: poor crystallinity and stability | Dehydration [1]: can be easily dehydrated to form amorphous

Cumulative dissolution ([2]; 0 min): 0.0% | Cumulative dissolution ([2]; 5 min): 22.7% | Cumulative dissolution ([2]; 10 min): 32.6% | Cumulative dissolution ([2]; 15 min): 39.2% | Cumulative dissolution ([2]; 20 min): 44.4% | Cumulative dissolution ([2]; 30 min): 51.5% | Cumulative dissolution ([2]; 45 min): 59.5% | Cumulative dissolution ([2]; 60 min): 65.2% | IDR [3]: 81.6204 μg/min/cm^2 | Cumulative dissolution ([3]; 8 min): 94.7 µg | Cumulative dissolution ([3]; 10 min): 207.4 µg | Cumulative dissolution ([3]; 15 min): 388.1 µg | Slope [3]: 40.8102 µg/min | Mean tensile strength ([5]; 80 mg compressed at 10 KN): 0.69 MPa
Compound: CC[C@@H]1CN(C(=O)NCC(F)(F)F)C[C@@H]1c1cnc2cnc3[nH]ccc3n12 [Form C in WO2017066775A1, (3S,4R)-3-ethyl-4-(3H-imidazo[1,2-a]pyrrolo[2,3-e]pyrazine-8-yl)-N-(2,2,2-trifluoroethyl) pyrrolidine-1-carboxamide, reference compound]
Solubility [4]: 220 µg/mL (≈ 0.578 mM)

Physical stability before and after formulation process ([6]; tablet of Example 15 (Table 15, Table 16)): good physical stability | Crystalline form after formulation process ([6]; tablet of Example 16 (Table 17, Table 18)): remains unchanged | Cumulative dissolution ([2]; 0 min): 0.0% | Cumulative dissolution ([2]; 5 min): 28.7% | Cumulative dissolution ([2]; 10 min): 46.4% | Cumulative dissolution ([2]; 15 min): 53.6% | Cumulative dissolution ([2]; 20 min): 57.5% | Cumulative dissolution ([2]; 30 min): 61.3% | Cumulative dissolution ([2]; 45 min): 64.9% | Cumulative dissolution ([2]; 60 min): 67.3% | Time the crystalline form kept stable ([7]; 4° C.): at least 6 months | Chemical purity during storage ([7]; 4° C., 40° C./75% RH and 60° C./75% RH): remains substantially unchanged | Solid Form after storage ([7]; 4° C., 6 months): Form CSI | Chemical purity during storage ([7]; 25° C./60% RH): remains substantially unchanged | Solid Form after storage ([7]; 25° C./60% RH, 6 months): Form CSI | Solid Form after storage ([7]; 40° C./75% RH, 2 weeks): Form CSI | Solid Form after storage ([7]; 60° C./75% RH, 2 weeks): Form CSI | Particle size distribution compared with Form C in WO2017066775A1 [8]: more uniform particle size distribution | IDR [3]: 665.4630 μg/min/cm^2 | Cumulative dissolution ([3]; 8 min): 746.1 µg | Cumulative dissolution ([3]; 10 min): 1458.8 µg | Cumulative dissolution ([3]; 15 min): 3087.0 µg | Slope [3]: 332.7315 µg/min | Mean tensile strength ([5]; 80 mg compressed at 10 KN): 1.53 MPa | Hardness ([5]; 80 mg compressed at 10 KN, tablets No. 1-3): 3.53 kgf and 3.06 kgf and 3.43 kgf | Tensile strength ([5]; 80 mg compressed at 10 KN, tablets No. 1-3, T=2H/πDL*9.8): 1.57 MPa and 1.43 MPa and 1.58 MPa | Crystalline state after tableting ([9]; 3 kN, 7 kN, and 14 kN pressure): does not change | Crystallinity after tableting ([9]; 3 kN, 7 kN, and 14 kN pressure): remains substantially unchanged | Crystallinity after grinding [9, 11]: remains substantially unchanged | solubility at 24 h [10, 12]: 790 µg/mL (≈ 2.08 mM) | solubility at 34 h [10, 12]: 710 µg/mL (≈ 1.87 mM) | solubility at 48 h [10, 12]: 660 µg/mL (≈ 1.74 mM) | Solubility compared with Form C ([10]; pH7.4 PBS, pH6.5 FaSSIF and pH5.0 FeSSIF): higher than that of Form C | solubility at 24 h ([10]; FaSSIF (pH 6.5, 37° C.)): 3800 µg/mL (≈ 9.99 mM) | solubility at 34 h ([10]; FaSSIF (pH 6.5, 37° C.)): 4100 µg/mL (≈ 10.8 mM) | solubility at 48 h ([10]; FaSSIF (pH 6.5, 37° C.)): 4100 µg/mL (≈ 10.8 mM) | solubility at 24 h ([10]; FeSSIF (pH 5.0, 37° C.)): 3100 µg/mL (≈ 8.15 mM) | solubility at 34 h ([10]; FeSSIF (pH 5.0, 37° C.)): 3000 µg/mL (≈ 7.89 mM) | solubility at 48 h ([10]; FeSSIF (pH 5.0, 37° C.)): 3100 µg/mL (≈ 8.15 mM)
Compound: CC[C@@H]1CN(C(=O)NCC(F)(F)F)C[C@@H]1c1cnc2cnc3[nH]ccc3n12 [Form CSI, (3S,4R)-3-ethyl-4-(3H-imidazo[1,2-a]pyrrolo[2,3-e]pyrazine-8-yl)-N-(2,2,2-trifluoroethyl) pyrrolidine-1-carboxamide]
Dissolution rate of drug product compared with Form C [2]: obviously better than that of Form C in WO2017066775A1 | Compressibility compared with Form C ([5]; compressed at 10 KN): better compressibility than Form C in WO2017066775A1 | Crystalline state after grinding [9, 11]: does not change; also recorded: remains unchanged after grinding

Compound: CC[C@@H]1CN(C(=O)NCC(F)(F)F)C[C@@H]1c1cnc2cnc3[nH]ccc3n12 [Form D]
Form conversion ([1]; high water activity): will convert to Form C
